Consider eleven compounds from patent US20100061982A1, “3-SUBSTITUTED-1H-INDOLE, 3-SUBSTITUTED-1H-PYRROLO[2,3-B]PYRIDINE AND 3-SUBSTITUTED-1H-PYRROLO[3,2-B]PYRIDINE COMPOUNDS, THEIR USE AS MTOR KINASE AND PI3 KINASE INHIBITORS, AND THEIR SYNTHESES” (priority 2008, published 2010).

Series [1] is described as follows: Microsome Stability (15 min), rat. The format is in vitro ADME. The note with it: microsomes, Phase I (NADPH), read-out: Microsome Stability (15 min) T ½ Phase I rat.
The nature of series [2]: PAMPA permeability pH 7.4.
The next series deals with PI3K alpha (Homo sapiens, UniProt P42336). As to the kind of experiment: PI3K-alpha Fluorescence Polarization Assay. The format is biochemical.
Series [3] can be described thus: Microsome Stability (15 min), human. The note with it: microsomes, Phase I (NADPH), read-out: Microsome Stability (15 min) T ½ Phase I human. The format is in vitro ADME.
Series [4] can be described thus: Buffer Stability (37° C.).
The nature of series [5]: Microsome Stability (15 min), nude mouse. The format is in vitro ADME. As to conditions: microsomes, Phase I (NADPH), read-out: Microsome Stability (15 min) T ½ Phase I nude mouse.
The nature of series [6]: Plasma Stability (37° C.), rat.
Series [7] is described as follows: In vivo blood/plasma and tumor levels of prodrug and metabolites after 50 mg, kg po. The note with it: 50 mg.

Read-outs that look alike come from different tables or passages of the source.

PI3K alpha, sequence (P42336 whole entry, species assumed): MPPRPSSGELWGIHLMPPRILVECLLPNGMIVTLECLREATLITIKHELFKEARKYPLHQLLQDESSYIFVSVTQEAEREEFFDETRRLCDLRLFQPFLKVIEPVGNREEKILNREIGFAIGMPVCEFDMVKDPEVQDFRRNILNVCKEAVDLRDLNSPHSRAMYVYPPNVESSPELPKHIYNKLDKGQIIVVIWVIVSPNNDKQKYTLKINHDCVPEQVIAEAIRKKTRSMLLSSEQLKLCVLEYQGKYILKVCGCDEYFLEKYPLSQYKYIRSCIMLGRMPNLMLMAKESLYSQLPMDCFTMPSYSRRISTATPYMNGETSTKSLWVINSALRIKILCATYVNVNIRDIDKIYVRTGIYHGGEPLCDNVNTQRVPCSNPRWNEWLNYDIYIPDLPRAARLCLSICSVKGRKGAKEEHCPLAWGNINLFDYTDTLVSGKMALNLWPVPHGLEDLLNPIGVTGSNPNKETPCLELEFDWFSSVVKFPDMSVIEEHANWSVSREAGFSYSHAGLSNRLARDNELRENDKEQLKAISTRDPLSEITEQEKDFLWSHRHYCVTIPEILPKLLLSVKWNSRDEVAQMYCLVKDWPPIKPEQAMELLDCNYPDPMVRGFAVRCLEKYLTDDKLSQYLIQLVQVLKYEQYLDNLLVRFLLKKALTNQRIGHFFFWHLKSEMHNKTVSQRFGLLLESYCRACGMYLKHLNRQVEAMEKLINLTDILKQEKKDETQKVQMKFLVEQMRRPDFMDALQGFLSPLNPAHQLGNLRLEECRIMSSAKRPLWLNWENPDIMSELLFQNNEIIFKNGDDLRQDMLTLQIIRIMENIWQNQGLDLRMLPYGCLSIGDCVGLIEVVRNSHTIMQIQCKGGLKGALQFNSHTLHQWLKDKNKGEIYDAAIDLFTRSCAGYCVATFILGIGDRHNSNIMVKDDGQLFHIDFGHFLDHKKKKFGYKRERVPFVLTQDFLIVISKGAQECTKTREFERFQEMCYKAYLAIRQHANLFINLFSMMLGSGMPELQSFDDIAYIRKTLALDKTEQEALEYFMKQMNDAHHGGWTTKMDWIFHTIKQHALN
PI3K alpha, sequence (P27986 whole entry partner, species assumed): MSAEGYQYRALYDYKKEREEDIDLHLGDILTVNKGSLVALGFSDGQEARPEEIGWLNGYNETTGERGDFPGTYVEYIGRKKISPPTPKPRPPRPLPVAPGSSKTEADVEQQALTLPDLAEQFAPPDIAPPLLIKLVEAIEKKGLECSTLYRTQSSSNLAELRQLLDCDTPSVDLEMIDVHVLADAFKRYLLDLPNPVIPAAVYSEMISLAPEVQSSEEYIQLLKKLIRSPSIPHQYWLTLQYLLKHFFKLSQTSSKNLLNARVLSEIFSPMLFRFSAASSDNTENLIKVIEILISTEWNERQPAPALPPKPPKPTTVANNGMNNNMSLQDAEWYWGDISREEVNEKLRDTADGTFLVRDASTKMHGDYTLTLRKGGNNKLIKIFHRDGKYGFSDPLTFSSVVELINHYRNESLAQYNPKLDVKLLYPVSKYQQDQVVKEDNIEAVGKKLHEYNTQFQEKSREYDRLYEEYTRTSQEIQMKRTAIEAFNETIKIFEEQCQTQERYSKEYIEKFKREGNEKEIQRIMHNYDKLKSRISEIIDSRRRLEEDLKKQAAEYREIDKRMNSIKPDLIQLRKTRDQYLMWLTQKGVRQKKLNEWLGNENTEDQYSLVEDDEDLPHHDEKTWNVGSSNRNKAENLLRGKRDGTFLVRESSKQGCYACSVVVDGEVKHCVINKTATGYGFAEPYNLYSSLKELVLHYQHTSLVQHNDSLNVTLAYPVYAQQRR

With `Cn1cc(/C=C2\Oc3cc(O)cc(O)c3C2=O)c2c(-c3ccccc3)cccc21` [(2Z)-4,6-dihydroxy-2-[(1-methyl-4-phenyl-1H-indol-3-yl)methylene]-1-benzofuran-3(2H)-one], in series [1], the half-life is 21 min. Further, the “PAMPA Pe” value in series [2] is listed as 0.04 10e−6 cm/s.
Consider `COc1ccc2[nH]c(-c3ccccc3)c(/C=C3\Oc4cc(OC(=O)c5ccccc5)cc(OC(=O)c5ccccc5)c4C3=O)c2c1` [Example 6, (2Z)-2-[(5-methoxy-2-phenyl-1H-indol-3-yl)methylene]-3-oxo-2,3-dihydro-1-benzofuran-4,6-diyl dibenzoate], for which the IC50 on PI3K alpha (read-out: PI3K alpha Mean IC50) is 0.472 µM. In series [2], the “PAMPA Pe” value is listed as 0.12 10e−6 cm/s.
With `COc1ccc2c(c1)c(/C=C1\Oc3cc(OC(=O)c4ccccc4)cc(OC(=O)c4ccccc4)c3C1=O)c(C)n2CCN1CCN(C)CC1` [Example 16, (2Z)-2-({5-methoxy-2-methyl-1-[2-(4-methylpiperazin-1-yl)ethyl]-1H-indol-3-yl}methylene)-3-oxo-2,3-dihydro-1-benzofuran-4,6-diyl dibenzoate], the IC50 on PI3K alpha (read-out: PI3K alpha Mean IC50) is 8.53 µM. In addition, in series [3], the half-life is more than 30 min. Further, in series [1], the half-life was determined as 10 min. In series [2], the “PAMPA Pe” value is 0 10e−6 cm/s. Also, in series [4], the “Buffer Stability (37° C.) % Remaining (at 16-23 hours) SGF” value worked out at 99%, the “Buffer Stability (37° C.) % Remaining (at 16-23 hours) SIF” value came out at 64%, the “Buffer Stability (37° C.) % Remaining (at 16-23 hours) pH 1” value is 96% and the “Buffer Stability (37° C.) % Remaining (at 16-23 hours) pH 4.5” value was found to be 73%. Besides, in series [4], the “Buffer Stability (37° C.) % Remaining (at 16-23 hours) pH 6.6” value was 75%, the “Buffer Stability (37° C.) % Remaining (at 16-23 hours) pH 7.4” value turned out to be 4% and the “Buffer Stability (37° C.) % Remaining (at 16-23 hours) pH 9” value came to 0%.
For `COc1ccc2[nH]c(-c3ccccc3)c(/C=C3\Oc4cc(OC(=O)N(C)C)ccc4C3=O)c2c1` [Example 18, (2Z)-2-[(5-methoxy-2-phenyl-1H-indol-3-yl)methylene]-3-oxo-2,3-dihydro-1-benzofuran-6-yl dimethylcarbamate], the 50% inhibitory concentration (IC50) at PI3K alpha is 6.35 µM. Besides, in series [3], the half-life is 13 min. Further, in series [5], the half-life was more than 30 min. Also, the half-life in series [1] was found to be 28 min. The “PAMPA Pe” value in series [2] is recorded as “Undetected”. In series [4], the “Buffer Stability (37° C.) % Remaining (at 16-23 hours) SGF” value stood at 100%, the “Buffer Stability (37° C.) % Remaining (at 16-23 hours) SIF” value is given as 101%, the “Buffer Stability (37° C.) % Remaining (at 16-23 hours) pH 1” value came to 99% and the “Buffer Stability (37° C.) % Remaining (at 16-23 hours) pH 4.5” value is reported as 100%. In addition, in series [4], the “Buffer Stability (37° C.) % Remaining (at 16-23 hours) pH 6.6” value was 100%, the “Buffer Stability (37° C.) % Remaining (at 16-23 hours) pH 7.4” value is recorded as 100% and the “Buffer Stability (37° C.) % Remaining (at 16-23 hours) pH 9” value is reported as 99%. In addition, in series [6], the “Plasma Stability (37° C.) % Remaining (3-3.5 hours) rat” value (“Plasma Stability (37° C.) % Remaining” for short) is reported as 0%.
In the case of `COc1ccc2[nH]c(-c3ccccc3)c(/C=C3\Oc4cc(OC(=O)Oc5ccccc5)ccc4C3=O)c2c1` [Example 19, (2Z)-2-[(5-methoxy-2-phenyl-1H-indol-3-yl)methylene]-3-oxo-2,3-dihydro-1-benzofuran-6-yl phenyl carbonate], the IC50 on PI3K alpha (read-out: PI3K alpha Mean IC50) came out at 0.181 µM. The half-life in series [3] came out at 28 min. In addition, in series [5] (nude, mouse), the half-life was more than 30 min. Further, in series [1], the half-life was more than 30 min. Moreover, the “PAMPA Pe” value in series [2] is 0 10e−6 cm/s. Further, in series [4], the “Buffer Stability (37° C.) % Remaining (at 16-23 hours) SGF” value came out at 106%, the “Buffer Stability (37° C.) % Remaining (at 16-23 hours) SIF” value was determined as 35%, the “Buffer Stability (37° C.) % Remaining (at 16-23 hours) pH 1” value came to 104% and the “Buffer Stability (37° C.) % Remaining (at 16-23 hours) pH 4.5” value is 74%. Besides, in series [4], the “Buffer Stability (37° C.) % Remaining (at 16-23 hours) pH 6.6” value was 60%, the “Buffer Stability (37° C.) % Remaining (at 16-23 hours) pH 7.4” value was determined as 54% and the “Buffer Stability (37° C.) % Remaining (at 16-23 hours) pH 9” value was 0%. Besides, the “Plasma Stability (37° C.) % Remaining” value in series [6] was found to be 10%.
Consider `COc1ccc2c(c1)c(/C=C1\Oc3cc(OC(=O)N(c4ccccc4)c4ccccc4)cc(OC(=O)N(c4ccccc4)c4ccccc4)c3C1=O)cn2CCCN(C)C` [Example 21, (2Z)-2-({1-[3-(dimethylamino)propyl]-5-methoxy-1H-indol-3-yl}methylene)-3-oxo-2,3-dihydro-1-benzofuran-4,6-diyl bis(diphenylcarbamate)], for which, on PI3K alpha, the IC50 was more than 10 µM. Further, the half-life in series [5] was more than 30 min. For the same compound, the “PAMPA Pe” value in series [2] is recorded as 0 10e−6 cm/s. In series [4], the “Buffer Stability (37° C.) % Remaining (at 16-23 hours) SGF” value amounted to 99%, the “Buffer Stability (37° C.) % Remaining (at 16-23 hours) SIF” value was found to be 45%, the “Buffer Stability (37° C.) % Remaining (at 16-23 hours) pH 1” value is given as 118% and the “Buffer Stability (37° C.) % Remaining (at 16-23 hours) pH 4.5” value was 103%. In series [4], the “Buffer Stability (37° C.) % Remaining (at 16-23 hours) pH 6.6” value worked out at 91%, the “Buffer Stability (37° C.) % Remaining (at 16-23 hours) pH 7.4” value turned out to be 98% and the “Buffer Stability (37° C.) % Remaining (at 16-23 hours) pH 9” value was determined as 87%. Further, the “Plasma Stability (37° C.) % Remaining” value in series [6] was 107%.
In the case of `COC(=O)Oc1cc(OC(=O)OC)c2c(c1)O/C(=C\c1c(-c3ccccc3)[nH]c3ccc(OC)cc13)C2=O` [Example 22, (2Z)-2-[(5-methoxy-2-phenyl-1H-indol-3-yl)methylene]-3-oxo-2,3-dihydro-1-benzofuran-4,6-diyl dimethyl biscarbonate], at PI3K alpha (read-out: PI3K alpha Mean IC50), the IC50 was determined as 0.013 µM. The half-life in series [3] was 3 min. In series [5] (nude, mouse), the half-life stood at 4 min. Moreover, in series [2], the “PAMPA Pe” value was 0 10e−6 cm/s. Further, in series [4], the “Buffer Stability (37° C.) % Remaining (at 16-23 hours) SGF” value stood at 87%, the “Buffer Stability (37° C.) % Remaining (at 16-23 hours) SIF” value worked out at 0%, the “Buffer Stability (37° C.) % Remaining (at 16-23 hours) pH 1” value stood at 80% and the “Buffer Stability (37° C.) % Remaining (at 16-23 hours) pH 4.5” value was 37%. In series [4], the “Buffer Stability (37° C.) % Remaining (at 16-23 hours) pH 6.6” value was 42%, the “Buffer Stability (37° C.) % Remaining (at 16-23 hours) pH 7.4” value is listed as 0% and the “Buffer Stability (37° C.) % Remaining (at 16-23 hours) pH 9” value is recorded as 0%. Besides, the “Plasma Stability (37° C.) % Remaining” value in series [6] came out at 0%.
Regarding `COc1ccc2c(c1)c(/C=C1\Oc3cc(OC(=O)c4ccccc4)cc(OC(=O)c4ccccc4)c3C1=O)cn2CCCN(C)C` [Example 24, (2Z)-2-({1-[3-(dimethylamino)propyl]-5-methoxy-1H-indol-3-yl}methylene)-3-oxo-2,3-dihydro-1-benzofuran-4,6-diyl dibenzoate], the IC50 at PI3K alpha (read-out: PI3K alpha Mean IC50) is more than 10 µM. Moreover, in series [3], the half-life worked out at 22 min. Also, the half-life in series [1] stood at 12 min. Besides, in series [2], the “PAMPA Pe” value is 0 10e−6 cm/s. For the same compound, in series [4], the “Buffer Stability (37° C.) % Remaining (at 16-23 hours) SGF” value turned out to be 104%, the “Buffer Stability (37° C.) % Remaining (at 16-23 hours) SIF” value is reported as 0%, the “Buffer Stability (37° C.) % Remaining (at 16-23 hours) pH 1” value was 86% and the “Buffer Stability (37° C.) % Remaining (at 16-23 hours) pH 4.5” value is 71%. Further, in series [4], the “Buffer Stability (37° C.) % Remaining (at 16-23 hours) pH 6.6” value was determined as 50%, the “Buffer Stability (37° C.) % Remaining (at 16-23 hours) pH 7.4” value was found to be 5% and the “Buffer Stability (37° C.) % Remaining (at 16-23 hours) pH 9” value was 0%. Also, the “Plasma Stability (37° C.) % Remaining” value in series [6] is reported as 6%.
At PI3K alpha, `COc1ccc2c(c1)c(/C=C1\Oc3cc(OC(=O)N(C(C)C)C(C)C)cc(OC(=O)N(C(C)C)C(C)C)c3C1=O)c(C)n2CCN1CCN(C)CC1` [Example 28, (2Z)-2-({5-methoxy-2-methyl-1-[2-(4-methylpiperazin-1-yl)ethyl]-1H-indol-3-yl}methylene)-3-oxo-2,3-dihydro-1-benzofuran-4,6-diyl bis(diisopropylcarbamate)] showed an IC50 of 9.5 µM. Also, the half-life in series [3] was 8 min; in series [5], 24 min. For the same compound, in series [2], the “PAMPA Pe” value is 0.05 10e−6 cm/s. Also, the plasma prodrug concentration is reported as 1141, ng, ml in series [7] (0.5 h); 940, ng, ml in series [7] (2 h); 1106 ng, ml in series [7] (6 h (third value)).
`CCOP(=O)(OCC)Oc1cc2c(c(OP(=O)(OCC)OCC)c1)C(=O)/C(=C/c1c(-c3ccccc3)[nH]c3ccc(OC)cc13)O2` [Example 32, tetraethyl (2Z)-2-[(5-methoxy-2-phenyl-1H-indol-3-yl)methylene]-3-oxo-2,3-dihydro-1-benzofuran-4,6-diyl bis(phosphate)] showed a half-maximal inhibitory concentration (IC50) on PI3K alpha of 11 µM. Further, the half-life in series [3] was 2 min; in series [1], 7 min. Besides, the “PAMPA Pe” value in series [2] was 0 10e−6 cm/s.
In turn, `CCOP(=O)(OCC)Oc1ccc2c(c1)O/C(=C\c1c(-c3ccccc3)[nH]c3ccc(OC)cc13)C2=O` [Example 34, diethyl (2Z)-2-[(5-methoxy-2-phenyl-1H-indol-3-yl)methylene]-3-oxo-2,3-dihydro-1-benzofuran-6-yl phosphate] registered a half-maximal inhibitory concentration (IC50) against PI3K alpha of 5.67 µM. In addition, the figures for the half-life in series [3], in series [5] and in series [1] were 26 min, more than 30 min and 17 min, respectively. Moreover, the “PAMPA Pe” value in series [2] is on record as 0 10e−6 cm/s. The plasma prodrug concentration in series [7] (0.5 h) was 6 ng, ml; in series [7] (2 h), 2 ng, ml; in series [7] (6 h (third value)), “bql”.
